Measured values reported in PubChem BioAssay (NCI).
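Dose response: 5 concentrations. Exposure: 48 h. Format: 96-well plates. Endpoint: linear interpolation; highest concentration if not reached. TGI denotes the concentration required for complete inhibition of growth.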

Tests used:
Assay in all cases: NCI tumour cell line growth inhibition, 48 h
786-0 renal = tested on: 786-0 renal
A498 renal = tested on: A498 renal
A549 NSCLC = tested on: A549 NSCLC
ACHN renal = tested on: ACHN renal
BT-549 breast = tested on: BT-549 breast
CAKI-1 renal = tested on: CAKI-1 renal
CCRF-CEM leukemia = tested on: CCRF-CEM leukemia
COLO 205 colon = tested on: COLO 205 colon
DU-145 prostate = tested on: DU-145 prostate
EKVX NSCLC = tested on: EKVX NSCLC
HCC-2998 colon = tested on: HCC-2998 colon
HCT-116 colon = tested on: HCT-116 colon
HCT-15 colon = tested on: HCT-15 colon
HL-60(TB) leukemia = tested on: HL-60(TB) leukemia
HOP-62 NSCLC = tested on: HOP-62 NSCLC
HS 578T breast = tested on: HS 578T breast
HT29 colon = tested on: HT29 colon
IGROV1 ovarian = tested on: IGROV1 ovarian
K-562 leukemia = tested on: K-562 leukemia
KM12 colon = tested on: KM12 colon
LOX IMVI melanoma = tested on: LOX IMVI melanoma
M14 melanoma = tested on: M14 melanoma
MALME-3M melanoma = tested on: MALME-3M melanoma
MCF7 breast = tested on: MCF7 breast
MDA-MB-231 breast = tested on: MDA-MB-231 breast
MDA-MB-435 = tested on: MDA-MB-435
MDA-N = tested on: MDA-N
MOLT-4 leukemia = tested on: MOLT-4 leukemia
NCI-H226 lung = tested on: NCI-H226 lung
NCI-H23 lung = tested on: NCI-H23 lung
NCI-H460 lung = tested on: NCI-H460 lung
NCI-H522 lung = tested on: NCI-H522 lung
NCI/ADR-RES ovarian = tested on: NCI/ADR-RES ovarian
OVCAR-3 ovarian = tested on: OVCAR-3 ovarian
OVCAR-4 ovarian = tested on: OVCAR-4 ovarian
OVCAR-5 ovarian = tested on: OVCAR-5 ovarian
OVCAR-8 ovarian = tested on: OVCAR-8 ovarian
PC-3 prostate = tested on: PC-3 prostate
RPMI-8226 leukemia = tested on: RPMI-8226 leukemia
RXF 393 renal = tested on: RXF 393 renal
SF-268 CNS = tested on: SF-268 CNS
SF-295 CNS = tested on: SF-295 CNS
SF-539 CNS = tested on: SF-539 CNS
SK-MEL-2 melanoma = tested on: SK-MEL-2 melanoma
SK-MEL-28 melanoma = tested on: SK-MEL-28 melanoma
SK-MEL-5 melanoma = tested on: SK-MEL-5 melanoma
SK-OV-3 ovarian = tested on: SK-OV-3 ovarian
SN12C renal = tested on: SN12C renal
SNB-75 CNS = tested on: SNB-75 CNS
SW-620 colon = tested on: SW-620 colon
T-47D breast = tested on: T-47D breast
TK-10 renal = tested on: TK-10 renal
U251 CNS = tested on: U251 CNS
UACC-257 melanoma = tested on: UACC-257 melanoma
UACC-62 melanoma = tested on: UACC-62 melanoma
UO-31 renal = tested on: UO-31 renal
HOP-92 NSCLC = tested on: HOP-92 NSCLC
SNB-19 CNS = tested on: SNB-19 CNS
SR leukemia = tested on: SR leukemia

Cc1ccc(C(=O)Nc2ccc(CP(=O)(O)O)cc2CP(=O)(O)O)cc1NC(=O)c1cccc(N)c1
TGI (786-0 renal): > 100 µM
TGI (A498 renal): > 100 µM
TGI (A549 NSCLC): > 100 µM
TGI (ACHN renal): > 100 µM
TGI (BT-549 breast): > 100 µM
TGI (CAKI-1 renal): > 100 µM
TGI (CCRF-CEM leukemia): > 100 µM
TGI (COLO 205 colon): > 100 µM
TGI (DU-145 prostate): > 100 µM
TGI (EKVX NSCLC): > 100 µM
TGI (HCC-2998 colon): > 100 µM
TGI (HCT-116 colon): > 100 µM
TGI (HCT-15 colon): > 100 µM
TGI (HL-60(TB) leukemia): > 100 µM
TGI (HOP-62 NSCLC): > 100 µM
TGI (HS 578T breast): > 100 µM
TGI (HT29 colon): > 100 µM
TGI (IGROV1 ovarian): > 100 µM
TGI (K-562 leukemia): > 100 µM
TGI (KM12 colon): > 100 µM
TGI (LOX IMVI melanoma): > 100 µM
TGI (M14 melanoma): > 100 µM
TGI (MALME-3M melanoma): > 100 µM
TGI (MCF7 breast): > 100 µM
TGI (MDA-MB-231 breast): > 100 µM
TGI (MDA-MB-435): > 100 µM
TGI (MDA-N): > 100 µM
TGI (MOLT-4 leukemia): > 100 µM
TGI (NCI-H226 lung): > 100 µM
TGI (NCI-H23 lung): > 100 µM
TGI (NCI-H460 lung): > 100 µM
TGI (NCI-H522 lung): > 100 µM
TGI (NCI/ADR-RES ovarian): > 100 µM
TGI (OVCAR-3 ovarian): > 100 µM
TGI (OVCAR-4 ovarian): > 100 µM
TGI (OVCAR-5 ovarian): > 100 µM
TGI (OVCAR-8 ovarian): > 100 µM
TGI (PC-3 prostate): > 100 µM
TGI (RPMI-8226 leukemia): > 100 µM
TGI (RXF 393 renal): > 100 µM
TGI (SF-268 CNS): > 100 µM
TGI (SF-295 CNS): > 100 µM
TGI (SF-539 CNS): > 100 µM
TGI (SK-MEL-2 melanoma): > 100 µM
TGI (SK-MEL-28 melanoma): > 100 µM
TGI (SK-MEL-5 melanoma): > 100 µM
TGI (SK-OV-3 ovarian): > 100 µM
TGI (SN12C renal): > 100 µM
TGI (SNB-75 CNS): > 100 µM
TGI (SW-620 colon): > 100 µM
TGI (T-47D breast): > 100 µM
TGI (TK-10 renal): > 100 µM
TGI (U251 CNS): > 100 µM
TGI (UACC-257 melanoma): > 100 µM
TGI (UACC-62 melanoma): > 100 µM
TGI (UO-31 renal): > 100 µM

CC(C)Sc1nc(C#N)cc2c1CCCC2
TGI (786-0 renal): > 100 µM
TGI (A498 renal): > 100 µM
TGI (A549 NSCLC): > 100 µM
TGI (ACHN renal): > 100 µM
TGI (BT-549 breast): > 100 µM
TGI (CAKI-1 renal): > 100 µM
TGI (CCRF-CEM leukemia): 55.8 µM
TGI (COLO 205 colon): 50.1 µM
TGI (DU-145 prostate): > 100 µM
TGI (EKVX NSCLC): > 100 µM
TGI (HCC-2998 colon): > 100 µM
TGI (HCT-116 colon): > 100 µM
TGI (HCT-15 colon): > 100 µM
TGI (HOP-62 NSCLC): > 100 µM
TGI (HOP-92 NSCLC): 93.5 µM
TGI (HT29 colon): > 100 µM
TGI (IGROV1 ovarian): > 100 µM
TGI (K-562 leukemia): > 100 µM
TGI (KM12 colon): > 100 µM
TGI (LOX IMVI melanoma): 70.3 µM
TGI (M14 melanoma): > 100 µM
TGI (MALME-3M melanoma): > 100 µM
TGI (MCF7 breast): > 100 µM
TGI (MDA-MB-231 breast): > 100 µM
TGI (MDA-MB-435): > 100 µM
TGI (MDA-N): > 100 µM
TGI (MOLT-4 leukemia): 61.6 µM
TGI (NCI-H226 lung): > 100 µM
TGI (NCI-H23 lung): > 100 µM
TGI (NCI-H460 lung): > 100 µM
TGI (NCI-H522 lung): 78.4 µM
TGI (NCI/ADR-RES ovarian): > 100 µM
TGI (OVCAR-3 ovarian): > 100 µM
TGI (OVCAR-4 ovarian): > 100 µM
TGI (OVCAR-5 ovarian): > 100 µM
TGI (OVCAR-8 ovarian): > 100 µM
TGI (PC-3 prostate): > 100 µM
TGI (RPMI-8226 leukemia): 68.9 µM
TGI (RXF 393 renal): 87.9 µM
TGI (SF-268 CNS): > 100 µM
TGI (SF-295 CNS): > 100 µM
TGI (SF-539 CNS): > 100 µM
TGI (SK-MEL-2 melanoma): 63.2 µM
TGI (SK-MEL-28 melanoma): > 100 µM
TGI (SK-MEL-5 melanoma): 33.2 µM
TGI (SK-OV-3 ovarian): > 100 µM
TGI (SN12C renal): > 100 µM
TGI (SNB-19 CNS): > 100 µM
TGI (SNB-75 CNS): > 100 µM
TGI (SR leukemia): 79.1 µM
TGI (SW-620 colon): > 100 µM
TGI (T-47D breast): > 100 µM
TGI (TK-10 renal): > 100 µM
TGI (U251 CNS): > 100 µM
TGI (UACC-257 melanoma): > 100 µM
TGI (UACC-62 melanoma): > 100 µM
TGI (UO-31 renal): > 100 µM
